Earlier results on two molecules are cited in patent publication US20250352520A1, “USE OF DEXPRAMIPEXOLE FOR THE TREATMENT OF EOSINOPHILIC COPD” (Areteia Therapeutics, Inc., priority 2024, published 2025).

Read-outs that look alike come from different tables or passages of the source.

For data set [1] the following is noted: patients with COPD, cited from earlier work.
The conditions of data set [2]: severe, uncontrolled, eosinophilic asthma; cited from earlier work.
For data set [3] the following is noted: cited from earlier work.
The conditions of data set [4]: COPD; cited from earlier work.

Consider “benralizumab: an anti-interleukin-5 receptor monoclonal antibody”, for which the blood eosinophils result in data set [1] (all doses, throughout the trial) was “substantial depletion of blood eosinophils”. In data set [1], the exacerbations entry was “failed to show statistically significant reduction of exacerbations”. Further, in data set [2], the eosinophils result is recorded as “effectively depleted eosinophils”, the exacerbations entry was “decreased exacerbations” and the lung function result was “improved lung function”.

B1: mepolizumab: a humanized monoclonal antibody against interleukin-5 (antibody, chains of the INN, looked up, V domains shown)
VH: QVTLRESGPALVKPTQTLTLTCTVSGFSLTSYSVHWVRQPPGKGLEWLGVIWASGGTDYNSALMSRLSISKDTSRNQVVLTMTNMDPVDTATYYCARDPPSSLLRLDYWGRGTPVTVSS
VL: DIVMTQSPDSLAVSLGERATINCKSSQSLLNSGNQKNYLAWYQQKPGQPPKLLIYGASTRESGVPDRFSGSGSGTDFTLTISSLQAEDVAVYYCQNVHSFPFTFGGGTKLEIK
Take B1: in data set [3], the asthma exacerbations entry is “significantly reduced asthma exacerbations” and the “biomarkers of asthma control” value was “associated with improvements in biomarkers of asthma control, including eosinophil counts”. In addition, in data set [4], the blood eosinophil counts result is given as “effectively reduced blood eosinophil counts”; the “lung function and clinical outcomes” value was “not associated with consistent improvements in lung function and clinical outcomes”.
